Results as given in patent US20220380341A1, “INHIBITORS OF HIV-1 NEF FOR THE TREATMENT OF HIV DISEASE” (priority 2018, published 2022).
pKd: −log10 of the molar value. Read-outs that look alike come from different tables or passages of the source.

Assays:
HIV-1NL4-3 = test: HIV-1 infectivity assay in TZM-bl reporter cell line (LTR-luciferase, 48 h); format: cell-based; settings: Human immunodeficiency virus 1, TZM-bl
Method in brief: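 TZM-bl cells (HIV-1 LTR-luciferase) infected with HIV-1NL4-3 with compound at 1 μM; luciferase read 48 h later. Percent inhibition normalized to DMSO wild-type infection (0%) and Nef-defective HIV-1 infection (100% of Nef-dependent effect). Viability in uninfected TZM-bl cells by Cell Titer Blue.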

TZM-bl cell line = format: cell-based; settings: human, 1 μM
Method in brief: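 Read-out is luciferase from an integrated HIV-1 LTR reporter in TZM-bl cells, 48 h after HIV-1NL4-3 infection in the presence of 1 μM compound. Scale set by DMSO-treated wild-type-infected cells (0%) and Nef-defective virus (100% Nef-dependent effect). Cell Titer Blue measures cytotoxicity without virus.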

HIV-1 NefNL4-3 = HIV-1 NefNL4-3 (Human immunodeficiency virus type 1 group M subtype B, UniProt P03406, A33V/T15A/T51N/V11I); test: Surface plasmon resonance binding to recombinant full-length Nef (NL4-3); settings: for RU30/RUNef (extent of binding): response units at 30 μM relative to Nef immobilized on the SPR chip
[1] = 1.0 μM, TZM-bl reporter cell line, Table 4, read-out: % Infectivity Inhibition
[2] = 48 h, Table 1, TZM-bl cells, 1 μM, 48 h, 100% = Nef-defective HIV-1, read-out: HIV-1 Infectivity % Inhibition Norm. to Δ-Nef @ 1 μM
[3] = KD, M, Table 4, SPR fit 1:1 Langmuir, KD = koff/kon
[4] = Table 4, 1:1 Langmuir fit, T = 1/koff
[5] = KD, M, Table 4, SPR fit 2-step induced fit, KD = koff/kon × koff2/(koff2 + kon2)
[6] = Nef NL4-3 Binding, SPR 2-state fitting KD, Table 1, 2-step induced-fit model
[7] = Table 4, 2-step induced fit, T = 1/koff2
[8] = read-out: Nef NL4-3 Binding, SPR 1:1 or 2-site fitting KD2, Table 1, 2-site fit, second component

SMILES	inhibition at 1 µM (HIV-1NL4-3; [1]) [%]	inhibition at 1 µM (HIV-1NL4-3; [2]) [%]	% Cell Viability (TZM-bl cell line) [%]	Percent Viability @ 1 μM (TZM-bl cells) (TZM-bl cell line) [%]	pKd (HIV-1 NefNL4-3)	pKd (HIV-1 NefNL4-3; [3])	T, minutes (residence time) (HIV-1 NefNL4-3; [4])	RU30/RUNef (extent of binding) (HIV-1 NefNL4-3)	pKd (HIV-1 NefNL4-3; [5])	pKd (HIV-1 NefNL4-3; [6])	T, minutes (residence time) (HIV-1 NefNL4-3; [7]) [E + 00 minutes]	pKd (HIV-1 NefNL4-3; [8])	pKd (HIV-1 NefNL4-3; Nef NL4-3 Binding, SPR 1:1 or 2-site fitting KD2, Table 1, 2-site fit, second component)	Nef NL4-3 Binding, SPR 1:1 or 2-site fitting KD1 (HIV-1 NefNL4-3; Table 1, 1:1 Langmuir fit where the KD2 cell says '1 to 1 fitting', else 2-site fit)
COC(=O)N1CCC(CCc2c(-c3ccc(C(F)(F)F)cn3)nn(-c3nc4cc(Br)ccc4[nH]3)c2O)CC1 [Compound I-708, methyl 4-{2-[1-(5-bromo-1H-1,3-benzodiazol-2-yl)-5-hydroxy-3-[5-(trifluoromethyl)pyridin-2-yl]-1H-pyrazol-4-yl]ethyl}piperidine-1-carboxylate]	100	117	77.8	77.8	8.85	8.85	1.00E + 04 minutes	2.04E- 03	–	–	–	–	–	–
CC(=O)N1CCC(CCc2c(-c3ccc(C(F)(F)F)cn3)nn(-c3nc4cc(Br)ccc4[nH]3)c2O)CC1 [Compound I-709, 1-(4-{2-[1-(5-bromo-1H-1,3-benzodiazol-2-yl)-5-hydroxy-3-[5-(trifluoromethyl)pyridin-2-yl]-1H-pyrazol-4-yl]ethyl}piperidin-1-yl)ethan-1-one]	66.7	66.7	74.0	74.0	7.58	7.58	5.18E + 02 minutes	8.85E- 04	–	–	–	–	–	–
O=C(c1ccc(F)cc1)N1CCC(CCc2c(C3CC3)nn(-c3nc4cc(Cl)ccc4[nH]3)c2O)CC1 [Compound I-710, 1-(5-chloro-1H-1,3-benzodiazol-2-yl)-3-cyclopropyl-4-{2-[1-(4-fluorobenzoyl)piperidin-4-yl]ethyl}-1H-pyrazol-5-ol]	2.5	2.5	100	106.9	–	–	–	2.12E- 02	5.61	5.61	4.16	5.01	–	–
O=C(C1CC1)N1CCC(CCc2c(C3CC3)nn(-c3nc4cc(Cl)ccc4[nH]3)c2O)CC1 [Compound I-711, 1-(5-chloro-1H-1,3-benzodiazol-2-yl)-4-[2-(1-cyclopropanecarbonylpiperidin-4-yl)ethyl]-3-cyclopropyl-1H-pyrazol-5-ol]	0	-0.4	97.2	97.2	–	–	–	1.96E- 02	5.48	5.48	5.97	5.06	–	–
CC(=O)N1CCC(c2c(-c3ccc(C(F)(F)F)cc3)nn(-c3nc4ccccc4[nH]3)c2O)CC1 [Compound I-713, 1-{4-[1-(1H-1,3-benzodiazol-2-yl)-5-hydroxy-3-[4-(trifluoromethyl)phenyl]-1H-pyrazol-4-yl]piperidin-1-yl}ethan-1-one]	–	27.8	–	76.8	3.42	–	–	–	–	–	–	–	–	–
CC(=O)N1CCC(CCc2c(-c3ccc(C(F)(F)F)cn3)nn(-c3nc4ccccc4[nH]3)c2O)CC1 [Compound I-714, 1-(4-{2-[1-(1H-1,3-benzodiazol-2-yl)-5-hydroxy-3-[5-(trifluoromethyl)pyridin-2-yl]-1H-pyrazol-4-yl]ethyl}piperidin-1-yl)ethan-1-one]	63.6	63.6	98.3	98.3	5.95	5.95	3.64E + 00 minutes	1.32E- 03	–	–	–	–	–	–
COC(=O)N1CCC(CCc2c(-c3ccc(C(F)(F)F)cn3)nn(-c3nc4ccccc4[nH]3)c2O)CC1 [Compound I-715, methyl 4-{2-[1-(1H-1,3-benzodiazol-2-yl)-5-hydroxy-3-[5-(trifluoromethyl)pyridin-2-yl]-1H-pyrazol-4-yl]ethyl}piperidine-1-carboxylate]	25.2	25.2	99.1	99.1	6.16	–	–	5.47E- 03	5.60	5.60	3.76	–	5.88	–
CS(=O)(=O)N1CCC(CCc2c(-c3ccc(C(F)(F)F)cn3)nn(-c3nc4ccccc4[nH]3)c2O)CC1 [Compound I-716]	22.8	22.8	97.1	97.1	5.71	–	–	5.13E- 03	5.36	5.36	3.22	–	–	–
CC(C)OC(=O)N1CCC(CCc2c(-c3ccc(Br)cn3)nn(-c3nc4ccccc4[nH]3)c2O)CC1 [Compound I-717, propan-2-yl4-{2-[1-(1H-1,3-benzodiazol-2-yl)-3-(5-bromopyridin-2-yl)-5-hydroxy-1H-pyrazol-4-yl]ethyl}piperidine-1-carboxylate]	–	-1.8	–	104.1	–	–	–	–	–	–	–	–	–	No Interaction
